Measurements published in US20160106654A1, “ADDITIVE OR SYNERGISTIC SUNSCREEN, ANTIOXIDANT, AND DNA REPAIR ENZYME COMPOSITION” (US CosmeceuTechs, LLC, priority 2014, published 2016).

Columns and labels:
[1] = test system: Normal human epidermal keratinocytes (NHEK); assay: NHEK, UVB, and protein carbonylation assay; type: cell-based; conditions: 5 μg/mL; for inhibition at 5 µg/mL: Homo sapiens, light or radiation study, n = 2, read-out: PC inhibition (%); for PC inhibition (%): n = 2
Description: The antioxidant(s) are preferably selected from those which protect against and/or prevent protein carbonylation (PC), protein glycation, lipidation, lipid glycation, protein alkylation, and/or lipid alkylation. Our system of evaluation from US 2006/0171886 A1, which may be modified to include a protein carbonylation, protein glycation, and/or protein alkylation analysis, may be used to evaluate the effectiveness of substances. Test results for selected antioxidants in the protection of human skin against protein carbonylation are shown below in Table 2.

[2] = test system: Normal human epidermal keratinocytes (NHEK); assay: NHEK, UVB, and DNA damage analysis assay; type: cell-based; conditions: 5 μg/mL; for inhibition at 5 µg/mL: Homo sapiens, light or radiation study; for 8-oxoG inhibition (%) / CPD inhibition (%): n = 2
[3] = test system: cyclobutane pyrimidine dimer (CPD) and 8-oxo-7,8-dihydro-2′-deoxyguanosine (8OHdG) formation, and protein carbonylation; assay: Combined protection score (CPD, 8OHdG, protein carbonylation), normalized for concentration; conditions: for Total Score: a maximum total score is 60
[4] = n = 2, read-out: 8-oxoG inhibition (%)
[5] = n = 2, read-out: CPD inhibition (%)

Row | Structure (SMILES) | inhibition at 5 µg/mL [1] | inhibition at 5 µg/mL [2, 4] | inhibition at 5 µg/mL [2, 5] | PC inhibition (%) [1] | 8oxo Score [3] | CPDs Score [3] | PC Score [3] | Total Score [3] | 8-oxoG inhibition (%) [2] | CPD inhibition (%) [2]
1 | O=C(/C=C/c1ccc(O)c(O)c1)O[C@@H]1C[C@](O)(C(=O)O)C[C@@H](O)[C@H]1O [Chlorogenic Acid] | 0% | 52.5% | 36% |  |  |  |  |  |  | 
2 | O=C(O[C@@H]1Cc2c(O)cc(O)cc2O[C@@H]1c1cc(O)c(O)c(O)c1)c1cc(O)c(O)c(O)c1 [Epigallocatechin Gallate] |  |  |  | 100% | 18 | 15 | 3 | 36 | 41.9% | 44.5%
3 | COc1cc(/C=C/C(=O)O)ccc1O [Ferulic Acid] | 0% | 41.1% | 15.7% |  | 19 | 17 | 10 | 46 |  | 
4 | O=C1O[C@H]([C@@H](O)CO)C(O)=C1O [L-Ascorbic Acid] | 87.2% | 44.1% | 33.1% |  | 20 | 16 | 0 | 36 |  | 
5 | NCCC(=O)N[C@@H](Cc1cnc[nH]1)C(=O)O [L-Carnosine] |  |  |  | 100% | 17 | 18 | 17 | 52 | 45.0% | 51.6%
6 | C[N+](C)(C)[C@@H](Cc1c[nH]c(=S)[nH]1)C(=O)[O-] [L-Ergothioneine] |  |  |  | 100% | 14 | 17 | 16 | 47 |  | 
7 | O=c1c(O)c(-c2ccc(O)c(O)c2)oc2cc(O)cc(O)c12 [Quercetin] | 0% | 42.4% | 45.7% |  |  |  |  |  |  | 
8 | Oc1ccc(C=Cc2cc(O)cc(O)c2)cc1 [Resveratrol] | 0% | 40.6% | 51.9% |  | 18 | 17 | 12 | 47 |  | 
9 | Cc1c(C)c2c(c(C)c1O)CC[C@@](C)(CCC[C@H](C)CCC[C@H](C)CCCC(C)C)O2 [α-Tocopherol] |  |  |  |  | 18 | 16 | 12 | 46 |  | 
